Source: ChEMBL document CHEMBL1143112, “Three-component, one-pot synthesis of novel 2,4-substituted 5-azolylthiopyrimidine library for screening against anti-influenza virus A” (Bioorg Med Chem Lett, 2008)
In brackets after ≈: the same amount, converted by molar mass.

Key:
[1] = Selectivity index, CC50 for dog MDCK cells to IC50 for influenza A virus H3N2; format: functional
[2] = Cytotoxicity against dog MDCK cells; format: cell-based, Canis lupus familiaris
Influenza B virus = assay: Antiviral activity against influenza B virus expressed in dog MDCK cells assessed as reduction of virus-induced cytopathic effect; format: functional, organism-based

In the case of `Cn1ccnc1Sc1cnc(C(C)(C)C)nc1-c1ccccc1O`, the Selectivity index [1] is reported as 9.
In the case of `CC(C)(C)c1nccc(-c2ccccc2O)n1`, the CC50 [2] is reported as 16200 µg/mL (≈ 71.2 mM).
`CC(C)(C)c1ncc(Sc2nc[nH]n2)c(-c2cc(Cl)ccc2O)n1` gave a CC50 [2] of 9580 µg/mL (≈ 26.5 mM).
`COc1ccc(O)c(-c2nc(SC)ncc2Sc2nccn2C)c1` gave a CC50 [2] of 7190 µg/mL (≈ 19.9 mM).
For `NC(=O)c1ncn([C@@H]2O[C@H](CO)[C@@H](O)[C@H]2O)n1` [RIBAVIRIN], the IC50 (Influenza B virus) was 4270 µg/mL (≈ 17.5 mM).
